Assay results published in US5512573A, “Use of phthaloylhydrazide derivatives as anti-hypoxic and defensive agents” (priority 1993, dated 1996).

Columns and labels:
[1] = tested on: mice, rats; settings: oral and i.p., 500 and 2500 mg/kg, 14 days
Protocol: Acute toxicity tests were performed on two animal species (mice, rats). More than 80 mice and 100 rats were used. The pharmaceutical was administered orally and intraperitoneally in doses of 500 and 2500 mg/kg (individual doses). The period of observation was 14 days.

[2] = tested on: female pregnant rats; settings: 60 mg/kg i.p.
Protocol: Teratogenic tests and embryotoxicity tests were performed on 58 female pregnant rats. A single dose was injected intraperitoneally on days 1, 3, 7, 10, 14 and 17 of gestation (60 mg/kg). The rats were decapitated on day 21 of the pregnancy and the uteruses and fetuses were examined.

[3] = tested on: lymphocytes, macrophages and fibroblasts; settings: 24-hour in vitro, 0.01 to 0.8 mmols/liter
Protocol: The cells used as subject matter included lymphocytes, macrophages and fibroblasts. Viability following a 24-hour in vitro exposure with 5-aminophthaloylhydrazide in concentrations of 0.01 to 0.8 mmols/liter was determined by means of protein incorporation and/or synthesis.

[4] = tested on: guinea pigs
Description: The allergenic activity of the drug was examined in guinea pigs.

[5] = tested on: male mice; settings: 40 to 80 mg/kg
Protocol: To study the pharmacological properties on the central nervous system, doses of 40 to 80 mg per kilogram of body weight were used. The choice of doses was based on safety criteria governing the use of medicines.
The neuropharmacological effects were studied in male mice of undefined strain which had reached sexual maturity. The mice, weighing 18 to 20 g, were given a solution of the drug intraabdominally. The neuropharmacological effects were studied on the basis of changes in the natural orientation reflex, in induced aggressiveness, and in muscle tone. The change in the natural sense of orientation was recorded according to the current method. To study the effect of the drug on induced aggressiveness, the electrical stimulation method (pain caused by electric current) was used.
The change in muscle tone was measured by means of the "pivot pin" method.

[6] = tested on: Hexenalum-induced sleep; settings: 10 to 30 mg/kg, 15 min before Hexenalum 80 mg/kg
Protocol: The effect of the drug on the length of Hexenalum-induced anesthesia was studied, i.e., the drug was administered in doses of 10 to 30 mg per kilogram of body weight, 15 minutes before the administration of the Hexenalum solution in a dose of 80 mg/kg.

[7] = tested on: male rats
Protocol: The effect of the sodium salt of 5-aminophthaloylhydrazide on blood pressure (BP) was examined in male rats weighing 230 to 270 g, in a controlled experiment where the rats were anesthetized with urethane. The blood pressure was recorded on tape by means of an electrical kymograph.
At the same time, we recorded the electrocardiogram in the second standard position as well as any changes in frequency and depth of respiration by means of a Morey capsule. We administered 5-aminophthaloylhydrazide in the femoral vein in the form of an aqueous solution prepared in a 2% sodium bicarbonate solution (pH=8.2), in doses of 40 mg/kg, 80 mg/kg and 50 mg/kg. Research on 5-aminophthaloylhydrazide was performed on 16 rats.

[8] = tested on: animal organisms; experiment: Pharmacological studies, general toxicity statement; settings: in vivo
[9] = tested on: brain ischemia (carotid tying) in mice; experiment: Example 4: carotid tying and release in mice; format: in vivo
Protocol: We performed experiments on 50 mice of the pyramid by tying the carotid under light anesthesia. After 7 minutes, we released the tie and restored the blood circulation in the ischemic area.

[10] = tested on: psoriasis
Protocol: Patient, ill for 5 years. Was cured in the hospital several times during that period. Complained about itching, general weakness, unpleasant sensations in parts of the skin. […] Diagnosis: psoriasis approaching the acute phase.
The drug was administered intravenously to the patient.

[11] = Summary of experiments on phthaloylhydrazide derivatives; format: in vivo
[12] = tested on: Corazolum- and strychnine-induced convulsions; settings: 40 and 80 mg/kg
[13] = tested on: leukocytes in ischemic tissue; surviving animals; settings: intramuscular injections, p>0.05
[14] = tested on: acute focal hypoxia
[15] = tested on: generalized psoriasis
[16] = physchem

In the case of `Nc1cccc2c(=O)[nH][nH]c(=O)c12` [5-aminophthaloylhydrazide, 5-amino-2,3-dihydrophthalazine-1,2 dione], the “morphological alteration of liver, kidneys, heart and brain” value [1] is reported as “No morphological alteration was observed”, the “percentage of lethal outcome” value ([1]; vs control group) is reported as “did not exceed that of the control group” and the “abnormality of the fetuses” value ([2]; single dose on days 1, 3, 7, 10, 14 and 17 of gestation) is reported as “No abnormality of the fetuses was observed”. The “site of uterine attachment, number, weight and mortality of the fetuses” value ([2]; vs control group) was “did not differ from those obtained for the control group”, the “toxicity (viability by protein incorporation and/or synthesis)” value [3] was “No toxicity was observed for any of the dosage levels tested” and the local irritation ([4]; 20 to 100 mg) was “no symptoms of local irritation”. The “erythema at the site of administration” value ([4]; even large doses) was “No erythema was observed at the site of administration”, the signs of allergy ([4]; subcutaneously or orally) was “No signs of allergy were observed” and the pain threshold [5] was “nor did it cause changes in muscle tone or modifications in the pain threshold”. The natural orientation reflex ([5]; intraabdominal) was “did not suppress the natural orientation reflex”, the muscle tone ([5]; pivot pin method) was “nor did it cause changes in muscle tone” and the “extension of Hexenalum-induced sleep” value [6] was “did not cause a noteworthy extension of the Hexenalum-induced sleep”. For the same compound, the electrocardiogram parameters ([7]; 20 mg and 50 mg/kg) was “no changes were observed in the electrocardiogram parameters of the heart”, the respiratory functions ([7]; 20 mg and 50 mg/kg) was “no impairment of the respiratory functions was observed” and the “negative effect on the cardiovascular system or the respiration” value ([7]; 40 and 50 mg/kg) was “did not present any evidence of a negative effect on the cardiovascular system or the respiration”. For the same compound, the “rise in blood pressure compared to the initial level” value ([7]; i.v. 1% solution, 0.6 ml/minute, average) was 1.57±5.93%, the “sudden fluctuations in the increase in blood pressure” value ([7]; i.v., 40 mg or 50 mg/kg) was “No sudden fluctuations in the increase in blood pressure were observed” and the “time for blood pressure to return to the initial level” value ([7]; i.v., average) was no more than 30 min. The “fluctuations in the level of blood pressure compared to the beginning” value ([7]; thirty minutes after administration, average) was 2.79±0.72, the “toxicity in animal organisms” value [8] was “absence of toxicity” and the “percentage of surviving animals” value ([9]; 30 mg/kg, p>0.05) was “did not increase”. The “cases with symptoms of neurological impairment” value ([9]; 100 mg/kg intramuscular) was 3 cases, the “effectiveness of intramuscular administration” value ([9]; 100 mg/kg intramuscular) was “the intramuscular administration of the drug was not effective” and the surviving animals ([9]; 100 mg/kg intramuscular) was “Six out of 10”. For the same compound, the “cases without symptoms of neurological impairment” value ([9]; 100 mg/kg intravenous) was 8 cases, the surviving animals ([9]; 100 mg/kg intravenous) was 9 out of 10 and the “cases with symptoms of damage to the central nervous system” value ([9]; 150 mg/kg) was 2 cases. For the same compound, the surviving animals ([9]; 150 mg/kg) was 80%, the “survival rate on further dose increase” value ([9]; above 100 mg/kg) was “did not lead to a reliable increase in the survival rate” and the “surviving animals without symptoms of neurological impairment” value ([9]; two administrations of 100 mg/kg, 12-hour interval) was 9 animals. The “response to subsequent treatment cycle” value ([10]; 12 days) was “made it possible to eliminate the main symptoms and led to a long-term remission of the main symptoms”, the “residual pustules and papules” value ([10]; flexor parts of the hands) was “Individual pustules and papules on the flexor parts of the hands remained” and the “time to return of acute symptoms” value ([10]; human, in vivo) was 4 months. For the same compound, the clinical symptoms ([10]; intravenous, after 10 days of treatment) was “the itching and weakness disappeared, the temperature dropped and the skin symptoms disappeared”, the “affected parts of the skin tissue” value ([10]; intravenous, day 20) was “the affected parts of the skin tissue had shrunk” and the “pharmacological activity, anti-hypoxic and defensive action” value ([11]; doses of 10 to 300 mg/kg) was “possess a pronounced pharmacological activity”. The therapeutic effects ([11]; in vivo) was “major therapeutic effects”, the stability (anhydrous conditions) was “stable in anhydrous conditions (can be preserved for over one year)” and the “stability in aqueous solutions” value (aqueous solutions) was “sometimes unstable in aqueous solutions”. The “reduction of induced convulsions” value [12] was “did not reduce the induced convulsions”, the “prevention of Corazolum- and strychnine-induced convulsions” value ([12]; preventive administration) was “did not prevent Corazolum- and strychnine-induced convulsions” and the “percentage of surviving animals” value [13] was 60%. The “effects of acute focal hypoxia” value ([14]; in a series of cases) was “it was possible to prevent the effects of acute focal hypoxia”, the “therapeutic effect by number of administrations” value ([14]; single vs two administrations at 12-hour intervals) was “a single administration of the drug proved insufficient and the main therapeutic effect was obtained after two administrations” and the clinical symptoms ([15]; 20 mg/kg for 10 days) was “elimination of the itching and a lessening of the skin symptoms”. For the same compound, the skin clearance ([15]; after a 30-day treatment) was “the skin was completely clear”, the “number of neutrophils in the epidermal cells” value ([15]; biopsy samples) was “considerable drop in the number of neutrophils in the epidermal cells” and the remission period ([15]; human, in vivo) was 8 months. For the same compound, the “skin symptoms after topical application” value ([15]; solution of the drug in 15% DMSO) was “led quickly to the disappearance of the skin symptoms, including the pustules” and the pKa [16] was 6.3.
